# Source: patent publication US4088772A, “Methanodibenzocycloheptapyrroles” (E. I. Du Pont de Nemours and Company, priority 1975, dated 1978)
# Like-named read-outs stand apart in the source and are kept apart here.
# Assays:
# in vivo = conditions: mouse, in vivo, po
# female white mice = experiment: animal or person; conditions: Mus musculus, po
# female CF1 S mice = experiment: Mouse spontaneous motor activity (activity cage); type: in vivo, mouse (CF1 S female); conditions: 0.5 h, read-out: Exploratory Loss Activity Cage ED50
# Protocol: Mouse Spontaneous Motor Activity (Activity Cage)
# Twenty-four per dose, 16- 20 g or 18-22 g, female CF1 S mice, fasted 16- 22 hours, are intubated (in pairs) with drug at t doses such as 0, 1, 3, 9, 27 and 81 mg/kg in 10 ml/kg of aqueous 1% methylcellulose. The mice are then put in separate "shoe-box" cages (12 × 7.5 × 5.3 inches plastic with a 0.33 inch mesh stainless steel lid), and 20 minutes after intubation the animals in pairs are moved to covered Woodard Photoelectric Activity Chambers (central light source type measurement floor area = 96 in^2). Ten minutes later (30 minutes after dosing) a 5-minute count is taken. Counting chamber characteristics are balanced out by counting 2 pairs of mice from each dose level in each of 6 different counting chambers. Half of each test is run in the a.m. and the other half is run in the p.m. to minimize "biological clock" variations.
# Canad. Biol. 20, 239-50 (1961), raw counts are thus transformed for statistical treatment (Student's t test). The means of the square roots then are squared and an ED50 for stimulation or depression (or both) is determined graphically.
# [1] = system: phenylquinone-induced writhing; experiment: Phenylquinone writhing test (analgesia); type: in vivo, mouse (Carworth CF1 S female); conditions: Mus musculus
# Text: This mouse test is predictive of analgesic response in humans. [E. Siegmund, R. Cadmus and G. Lee, Proc. Soc.
# ED50 values were obtained graphically from the data.
# Holzman male white rats = experiment: Rat approach-avoidance test (anti-anxiety); type: in vivo, rat (Holzman male white); conditions: for ED50: Rattus norvegicus; for anti-anxiety activity: in words
# Protocol: Potential as anti-anxiety agents was assessed by means of the potency of these compounds in the rat approach-avoidance test.
# Approach-Avoidance Test Method
# 18 hr. waterdeprived Holzman male white rats, 150-175 g each, were used. The apparatus consists of two interconnected chambers, the first in which the animal is placed, and a second which contains the stimulus and a water bottle. The second is fitted with an electrifiable floor. On the first day, the rats are placed in the first chamber. They are allowed three minutes to find the water bottle in the second chamber and to drink water for at least two seconds. After three successful trials on the first day the animals are given one predrug trial on the second day. Then follows a second predrug trial during which the floor of the second chamber is electrified 1.5 seconds after the rat has commenced drinking water. The animals are randomized, dosed orally, and reexposed to the test situation at 1, 2, or 4 hours after the shock trial.
# [2] = read-out: Catatonia ED50, Table 1, oral, mice
# [3] = read-out: Exploratory Loss Visual ED50, Table 1, oral, mice
# [4] = read-out: Muscle Tone ED50, Table 1, oral, mice
# [5] = read-out: Ptosis ED50, Table 1, Extrapolated value
# [6] = read-out: Reflexes Lift ED50, Table 1, oral, mice
# [7] = read-out: Reflexes Pinna ED50, Table 1, oral, mice
# [8] = Table 1, oral, mice, 30 minutes after dosing
# [9] = 0.3 mg/kg oral, 4 hrs, N=10 rats
# [10] = Table II, oral, rats, 4 hrs, read-out: ED50
# [11] = read-out: Reflexes Grip ED50, Table 1, oral, mice
# [12] = read-out: Ptosis ED50, Table 1, oral, mice
Compound,ED50 (in vivo) [mg/kg],LD50 at 24 h (in vivo) [mg/kg],ED50 (female white mice; [2]) [mg/kg],ED50 (female white mice; [3]) [mg/kg],ED50 (female white mice; [4]) [mg/kg],ED50 (female white mice; [6]) [mg/kg],ED50 (female white mice; [7]) [mg/kg],ED50 (female CF1 S mice; [8]) [mg/kg],"ED50 ([1]; po, Table 1, mice) [mg/kg]",anti-anxiety activity (Holzman male white rats),ED50 (female white mice; [11]) [mg/kg],ED50 (female white mice; [12]) [mg/kg],other results
"c1ccc2c(c1)C1CC3(CN(CC4CCCCC4)CC23)c2ccccc21 (stereo not shown) [Example 25, 2-Cyclohexylmethyl-2,3,8,12b-tetrahydro-1H-3a,8-methanodibenzo[3,4:6,7]cyclohepta[1,2-c]pyrrole]",450,320,9,9,8,8,7,4.7,6.4,potent anti-anxiety or minor tranquilizer activity,,,"ED50 (female white mice; [5]): 3 mg/kg; ED50 (female white mice; read-out: Reflexes Grip ED50, Table 1, Extrapolated value): 450 mg/kg; No. of Responders (Holzman male white rats; 0.1 mg/kg oral, 4 hrs, N=10 rats): 1; No. of Responders (Holzman male white rats; [9]): 2; No. of Responders (Holzman male white rats; 1.0 mg/kg oral, 4 hrs, N=8 rats): 5; ED50 (Holzman male white rats; [10]): 0.5 mg/kg"
"CN(C)CCCN1c2ccccc2Sc2ccc(Cl)cc21 [Chlopromazine, Chlorpromazine, reference compound]",,,,,,,,,,not active at non-sedating doses,,,ED50 (in vivo; Tremors ED50): > 324 mg/kg; ED50 (female CF1 S mice; po): 7.3 mg/kg
"c1ccc2c(c1)C1CC3(CN(CC4CCCC4)CC23)c2ccccc21 (stereo not shown) [Example 7, 2-Cyclopentylmethyl-2,3,8,12b-tetrahydro-1H-3a,8-methanodibenzo[3,4:6,7]cyclohepta[1,2-c]pyrrole]",> 324,> 324,8,7,7,11,9,0.66,2,potent anti-anxiety or minor tranquilizer activity,210,,"ED50 (female white mice; [5]): 3 mg/kg; No. of Responders (Holzman male white rats; 0.03 mg/kg oral, 4 hrs, N=10 rats): 1; No. of Responders (Holzman male white rats; 0.1 mg/kg oral, 4 hrs, N=20 rats): 7; No. of Responders (Holzman male white rats; [9]): 6; ED50 (Holzman male white rats; [10]): 0.2 mg/kg"
"c1ccc2c(c1)[C@@H]1C[C@@]3(CN(CC4CCC4)C[C@H]23)c2ccccc21 (relative stereo) [Example 19, 2-Cyclobutylmethyl-2,3,8,12b-tetrahydro-1H-3a,8-methanodibenzo[3,4:6,7]cyclohepta[1,2-c]pyrrole]",,> 324,20,20,12,20,12,,,,200,7,"ED50 (in vivo; Tremors ED50, Table 1, mice): > 324 mg/kg; ED50 (female CF1 S mice; po): 1 mg/kg; ED50 ([1]; Table 1, oral, mice): 5 mg/kg"
"c1ccc2c(c1)[C@@H]1C[C@@]3(CN(C[C@@H]4C[C@H]5CC[C@@H]4C5)C[C@H]23)c2ccccc21 (relative stereo) [Example 35, 2-(2-Exo-bicyclo[2.2.1]heptylmethyl)-2,3,8,12b-tetrahydro-1H-3a,8-methanodibenzo[3,4:6,7]cyclohepta[1,2-c]pyrrole]",> 324,> 324,15,8.6,12,29,21,3.3,6.2,,> 324,5.1,
"C1=C(CN2CC3c4ccccc4C4CC3(C2)c2ccccc24)CCCC1 (stereo not shown) [Example 26, 2-(1-Cyclohexenylmethyl)-2,3,8,12b-tetrahydro-1H-3a,8-methanodibenzo[3.4:6,7]cyclohepta[1,2-c]pyrrole]",> 324,> 324,10,12,7,15,15,0.8,6.8,,400,6,
"CN1C(=O)CN=C(c2ccccc2)c2cc(Cl)ccc21 [Diazepam, reference compound]",,,,,,,,,,active in this test,,,"ED50 (in vivo; Tremors ED50, Table 1, mice): > 324 mg/kg; ED50 (female CF1 S mice; po): 2 mg/kg; No. of Responders (Holzman male white rats; 1 mg/kg oral, 1 hr, N=6 rats): 0; No. of Responders (Holzman male white rats; 3 mg/kg oral, 1 hr, N=6 rats): 2; No. of Responders (Holzman male white rats; 10 mg/kg oral, 1 hr, N=6 rats): 5; ED50 (Holzman male white rats; po, 1 h): 6 mg/kg"
"C1=CCC(CN2CC3c4ccccc4C4CC3(C2)c2ccccc24)CC1 (stereo not shown) [Example 27, 2-(3-Cyclohexenylmethyl)-2,3,8,12b-tetrahydro-1H-3a,8-methanodibenzo[3,4:6,7]cyclohepta[1,2-c]pyrrole]",> 324,> 324,4.5,4.5,4.5,9,8,0.29,4.2,,97,2.9,
"c1ccc(CN2CC3c4ccccc4C4CC3(C2)c2ccccc24)cc1 (stereo not shown) [Example 4, 2-Benzyl-2,3,8,12b-tetrahydro-1H-3a,8-methanodibenzo[3,4:6,7]cyclohepta[1,2-c]pyrrole]",> 324,> 324,20,20,20,36,300,4.6,9.4,,> 324,20,
"CCCCCCCN1CC2c3ccccc3C3CC2(C1)c1ccccc13 (stereo not shown) [Example 15, 2-n-Heptyl-2,3,8,12b-tetrahydro-1H-3a,8-methanodibenzo[3,4:6,7]cyclohepta[1,2-c]pyrrole]",> 324,> 324,5,,,9,,1,3.6,,260,< 3,"ED50 (female white mice; read-out: Exploratory Loss Visual ED50, Table 1, Extrapolated value): 3.2 mg/kg; ED50 (female white mice; read-out: Muscle Tone ED50, Table 1, Extrapolated value): 3 mg/kg"
"CCCCCCN1CC2c3ccccc3C3CC2(C1)c1ccccc13 (stereo not shown) [Example 14, 2-n-Hexyl-2,3,8,12 b-tetrahydro-1H-3a,8-methanodibenzo[3,4:6,7]cyclohepta[1,2-c]pyrrole]",326,> 324,5.6,7,4.1,8.6,11,1.3,2.6,,187,4.5,
"CCCCCN1C[C@@H]2c3ccccc3[C@@H]3C[C@@]2(C1)c1ccccc13 (relative stereo) [Example 59, 2-n-Pentyl-2,3,8,12b-tetrahydro-1H-3a,8-methanodibenzo[3,4:6,7]cyclohepta[1,2-c]pyrrole]",,> 324,17,8.4,13,19,8,,,,100,4.5,"ED50 ([1]; Table 1, oral, mice): 8.2 mg/kg"
"CCCN1C[C@@H]2c3ccccc3[C@@H]3C[C@@]2(C1)c1ccccc13 (relative stereo) [Example 58, 2-n-Propyl-2,3,8,12b-tetrahydro-1H-3a,8-methanodibenzo[3,4:6,7]cyclohepta[1,2-c]pyrrole]",,200,7,7,7,7,4,,,,60,7,"ED50 ([1]; Table 1, oral, mice): 2.9 mg/kg"
